Peptide text beside a SMILES is read from it. * marks the point of attachment. C16 diacid = O=C(O)CCCCCCCCCCCCCCC(=O)*
Assays:
human GIP receptor [1] = biological target: T1, human GIP receptor (Homo sapiens, UniProt P48546); test: cAMP accumulation assay, antagonism of a GIP-mediated cAMP response (50-80% of max); type: cell-based; conditions: for Fold change of IC50 versus GIP(5-30)NH2: fold change of IC50 from GIP(5-30)NH2
T1 construct: host or cells: COS-7, transient transfection (calcium phosphate), cDNA in pCMV-Script
T1 sequence (P48546 22-466): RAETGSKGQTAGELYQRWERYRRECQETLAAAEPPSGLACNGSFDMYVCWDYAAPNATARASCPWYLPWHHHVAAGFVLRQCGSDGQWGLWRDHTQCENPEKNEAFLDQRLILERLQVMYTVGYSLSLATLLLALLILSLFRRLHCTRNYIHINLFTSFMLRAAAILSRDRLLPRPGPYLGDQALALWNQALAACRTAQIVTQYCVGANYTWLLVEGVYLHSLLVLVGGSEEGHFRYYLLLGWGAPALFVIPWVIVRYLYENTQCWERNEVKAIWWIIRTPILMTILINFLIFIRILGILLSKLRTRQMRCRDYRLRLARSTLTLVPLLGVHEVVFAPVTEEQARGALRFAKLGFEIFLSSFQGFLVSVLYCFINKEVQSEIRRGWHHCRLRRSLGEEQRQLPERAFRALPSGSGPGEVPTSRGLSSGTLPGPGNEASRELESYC
Procedure: The day after, the cells were washed twice with Hepes buffered saline (HBS) buffer and incubated with HBS and 1 mM 3-isobutyl-1-methylxanthine (IBMX) for 30 min at 37° C. […] The HitHunter™ cAMP XS assay (DiscoveRx) was carried out according to the manufacturer's instructions.

human GIP receptor [2] = biological target: T1, human GIP receptor; test: cAMP accumulation assay, agonism (ligand alone); type: cell-based; conditions: Table 1; for Emax: COS-7, intrinsic cAMP activity, COS-7 cells; for EC50: given as log EC50 (negative sign), read-out: cAMP agonism EC50 (log) (converted)
human GIP receptor [3] = biological target: T1, human GIP receptor; test: 125I-human GIP competition binding assay, in the presence and absence of 2% HSA; conditions: for Fold change HSA (2%)/Casein (0.1%): IC50 (plus HSA)/IC50 (minus HSA); for Binding (+/−HSA) Fold: fold change +HSA/−HSA;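 for all read-outs here: nonspecific binding taken as radioligand bound to untransfected cells, IC50 obtained from nonlinear regression fits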
Procedure: Transient transfection of the COS-7 cells for cAMP accumulation and competition binding was performed using the calcium phosphate precipitation method with the addition of chloroquine^46-47.
Transient transfected COS-7 cells expressing the human GIP receptor were seeded in clear 96-well plates the day after transfection using a number of cells/well that obtained 5-10% specific binding of the added radioactive ligand. The following day, cells were assayed by competition binding for 3 h at 4° C. using 15-40 pM 125 I-human GIP as well as increasing concentrations unlabeled ligand in 50 mM Hepes buffer (pH 7.2) in the presence and absence of 2% HSA. After incubation, the cells were washed twice in ice-cold binding buffer (+/−2% HSA) and lysed using 200 mM NaOH with 1% SDS for 30 min. Nonspecific binding was determined as the binding of radioactive ligand to untransfected cells.
IC50, EC50, and Ki values were determined by nonlinear regression. […] Ki values were based on the formula for one class of binding sites in homologous competition binding studies and the Cheng Prussoffs formula, respectively (DeBlasi et al., 1989). To determine the HSA binding potential, the fold change in affinity (as determined by IC50) was calculated as IC50 (plus HSA)/IC50 (minus HSA).

[4] = binding in 0.1% casein (absence of HSA), log value, read-out: logIC50 0.1% casein (converted)
[5] = heterologous competition binding, transiently transfected COS-7 cells expressing the human GIP receptor, read-out: Binding
[6] = antagonism of GIP-mediated cAMP response, COS-7 cells, read-out: cAMP accumulation IC50
[7] = transiently transfected COS-7 cells, Table 1 and text, read-out: cAMP antagonism nM (IC50, antagonistic potency)

SMILES | Ability to antagonize the GIP-mediated cAMP response (in words) (human GIP receptor [1]) | Fold change of IC50 versus GIP(5-30)NH2 (human GIP receptor [1]) | Emax (human GIP receptor [2]) [%] | Fold change HSA (2%)/Casein (0.1%) (human GIP receptor [3]) | IC50 (human GIP receptor [3]; [4]) [nM] | Binding (+/−HSA) Fold (human GIP receptor [3]) | IC50 (human GIP receptor [3]; [5]) [nM] | IC50 (human GIP receptor [1]; [6]) [nM] | IC50 (human GIP receptor [1]; [7]) [nM] | EC50 (human GIP receptor [2]) [nM] | IC50 (human GIP receptor [3]; binding in presence of 2% HSA, read-out: logIC50 2% HSA (converted)) [nM] | Ki (human GIP receptor [3]; absence of HSA) [nM] | Ki (human GIP receptor [3]; presence of 2% HSA) [nM]
CC[C@H](C)[C@H](NC(=O)[C@H](CCCCN)NC(=O)[C@H](CC(=O)O)NC(=O)[C@H](CCSC)NC(=O)[C@H](C)NC(=O)[C@H](CCCCNC(=O)CCCCCCCCCCCCCCC(=O)O)NC(=O)[C@H](CO)NC(=O)[C@H](Cc1ccc(O)cc1)NC(=O)[C@H](CC(=O)O)NC(=O)[C@H](CO)NC(=O)[C@@H](NC(=O)[C@H](Cc1ccccc1)NC(=O)[C@@H](N)[C@@H](C)O)[C@@H](C)CC)C(=O)N[C@@H](Cc1c[nH]cn1)C(=O)N[C@@H](CCC(N)=O)C(=O)N[C@@H](CCC(N)=O)C(=O)N[C@@H](CC(=O)O)C(=O)N[C@@H](Cc1ccccc1)C(=O)N[C@H](C(=O)N[C@@H](CC(N)=O)C(=O)N[C@@H](Cc1c[nH]c2ccccc12)C(=O)N[C@@H](CC(C)C)C(=O)N[C@@H](CC(C)C)C(=O)N[C@@H](C)C(=O)N[C@@H](CCC(N)=O)C(=O)N[C@@H](CCCCN)C(N)=O)C(C)C [AT174, [hGIP(5-30)NH2[I12K]-C16diacid/12]] (H-TFISDYSK(C16 diacid)AMDKIHQQDFVNWLLAQK-NH2; N-terminus assumed) | highest antagonistic potencies | 0.9 | 0 | 3.5 | 79.4 | 6.1 | 80 | – | – | – | – | – | –
CC[C@H](C)[C@H](NC(=O)[C@H](CO)NC(=O)[C@H](Cc1ccc(O)cc1)NC(=O)[C@H](CC(=O)O)NC(=O)[C@H](CO)NC(=O)[C@@H](NC(=O)[C@H](Cc1ccccc1)NC(=O)[C@@H](N)[C@@H](C)O)[C@@H](C)CC)C(=O)N[C@@H](C)C(=O)N[C@@H](CCCCNC(=O)CCCCCCCCCCCCCCC(=O)O)C(=O)N[C@@H](CC(=O)O)C(=O)N[C@@H](CCCCN)C(=O)N[C@H](C(=O)N[C@@H](Cc1c[nH]cn1)C(=O)N[C@@H](CCC(N)=O)C(=O)N[C@@H](CCC(N)=O)C(=O)N[C@@H](CC(=O)O)C(=O)N[C@@H](Cc1ccccc1)C(=O)N[C@H](C(=O)N[C@@H](CC(N)=O)C(=O)N[C@@H](Cc1c[nH]c2ccccc12)C(=O)N[C@@H](CC(C)C)C(=O)N[C@@H](CC(C)C)C(=O)N[C@@H](C)C(=O)N[C@@H](CCC(N)=O)C(=O)N[C@@H](CCCCN)C(N)=O)C(C)C)[C@@H](C)CC [AT176, [hGIP(5-30)NH2[M14K]-C16diacid/14]] (H-TFISDYSIAK(C16 diacid)DKIHQQDFVNWLLAQK-NH2; N-terminus assumed) | – | 3.8 | 12 | 4.9 | 126 | 5.1 | 114 | 105 | 121 | 100 | 562 | – | –
CC[C@H](C)[C@H](NC(=O)[C@H](CO)NC(=O)[C@H](Cc1ccc(O)cc1)NC(=O)[C@H](CC(=O)O)NC(=O)[C@H](CO)NC(=O)[C@@H](NC(=O)[C@H](Cc1ccccc1)NC(=O)[C@@H](N)[C@@H](C)O)[C@@H](C)CC)C(=O)N[C@@H](C)C(=O)N[C@@H](CCSC)C(=O)N[C@@H](CCCCNC(=O)CCCCCCCCCCCCCCC(=O)O)C(=O)N[C@@H](CCCCN)C(=O)N[C@H](C(=O)N[C@@H](Cc1c[nH]cn1)C(=O)N[C@@H](CCC(N)=O)C(=O)N[C@@H](CCC(N)=O)C(=O)N[C@@H](CC(=O)O)C(=O)N[C@@H](Cc1ccccc1)C(=O)N[C@H](C(=O)N[C@@H](CC(N)=O)C(=O)N[C@@H](Cc1c[nH]c2ccccc12)C(=O)N[C@@H](CC(C)C)C(=O)N[C@@H](CC(C)C)C(=O)N[C@@H](C)C(=O)N[C@@H](CCC(N)=O)C(=O)N[C@@H](CCCCN)C(N)=O)C(C)C)[C@@H](C)CC [AT177, [hGIP(5-30)NH2[D15K]-C16diacid/15]] (H-TFISDYSIAMK(C16 diacid)KIHQQDFVNWLLAQK-NH2; N-terminus assumed) | – | 1.3 | 30 | 3.8 | – | 3.8 | 134 | – | 59 | 100 | – | 117 | –
CC[C@H](C)[C@H](NC(=O)[C@H](CO)NC(=O)[C@H](Cc1ccc(O)cc1)NC(=O)[C@H](CC(=O)O)NC(=O)[C@H](CO)NC(=O)[C@@H](NC(=O)[C@H](Cc1ccccc1)NC(=O)[C@@H](N)[C@@H](C)O)[C@@H](C)CC)C(=O)N[C@@H](C)C(=O)N[C@@H](CCSC)C(=O)N[C@@H](CC(=O)O)C(=O)N[C@@H](CCCCN)C(=O)N[C@@H](CCCCNC(=O)CCCCCCCCCCCCCCC(=O)O)C(=O)N[C@@H](Cc1c[nH]cn1)C(=O)N[C@@H](CCC(N)=O)C(=O)N[C@@H](CCC(N)=O)C(=O)N[C@@H](CC(=O)O)C(=O)N[C@@H](Cc1ccccc1)C(=O)N[C@H](C(=O)N[C@@H](CC(N)=O)C(=O)N[C@@H](Cc1c[nH]c2ccccc12)C(=O)N[C@@H](CC(C)C)C(=O)N[C@@H](CC(C)C)C(=O)N[C@@H](C)C(=O)N[C@@H](CCC(N)=O)C(=O)N[C@@H](CCCCN)C(N)=O)C(C)C [AT178, [hGIP(5-30)NH2[I17K]-C16diacid/17]] (H-TFISDYSIAMDKK(C16 diacid)HQQDFVNWLLAQK-NH2; N-terminus assumed) | – | 1 | 0 | 3.0 | 63.1 | 4.5 | 66 | 27.5 | 33 | – | – | – | –
CC[C@H](C)[C@H](NC(=O)[C@H](CO)NC(=O)[C@H](Cc1ccc(O)cc1)NC(=O)[C@H](CC(=O)O)NC(=O)[C@H](CO)NC(=O)[C@@H](NC(=O)[C@H](Cc1ccccc1)NC(=O)[C@@H](N)[C@@H](C)O)[C@@H](C)CC)C(=O)N[C@@H](C)C(=O)N[C@@H](CCSC)C(=O)N[C@@H](CC(=O)O)C(=O)N[C@@H](CCCCN)C(=O)N[C@H](C(=O)N[C@@H](Cc1c[nH]cn1)C(=O)N[C@@H](CCCCNC(=O)CCCCCCCCCCCCCCC(=O)O)C(=O)N[C@@H](CCC(N)=O)C(=O)N[C@@H](CC(=O)O)C(=O)N[C@@H](Cc1ccccc1)C(=O)N[C@H](C(=O)N[C@@H](CC(N)=O)C(=O)N[C@@H](Cc1c[nH]c2ccccc12)C(=O)N[C@@H](CC(C)C)C(=O)N[C@@H](CC(C)C)C(=O)N[C@@H](C)C(=O)N[C@@H](CCC(N)=O)C(=O)N[C@@H](CCCCN)C(N)=O)C(C)C)[C@@H](C)CC [AT179, [hGIP(5-30)NH2[Q19K]-C16diacid/19]] (H-TFISDYSIAMDKIHK(C16 diacid)QDFVNWLLAQK-NH2; N-terminus assumed) | – | 2.1 | 32 | 3.6 | – | 6.3 | – | – | 89 | 100 | – | – | 2380

From patent publication US11572399B2, “Long-acting GIP peptide analogues” (University of Copenhagen, priority 2017, dated 2023)
